The text below walks through data of US8933024B2, “Azolopyridin-3-one derivatives as inhibitors of lipases and phospholipases” (Sanofi, priority 2010, dated 2015).

One may read the IC50 as the concentration at which inhibition is half-maximal.

Chain of endothelial lipase (EL) (Q9Y5X9 21-500): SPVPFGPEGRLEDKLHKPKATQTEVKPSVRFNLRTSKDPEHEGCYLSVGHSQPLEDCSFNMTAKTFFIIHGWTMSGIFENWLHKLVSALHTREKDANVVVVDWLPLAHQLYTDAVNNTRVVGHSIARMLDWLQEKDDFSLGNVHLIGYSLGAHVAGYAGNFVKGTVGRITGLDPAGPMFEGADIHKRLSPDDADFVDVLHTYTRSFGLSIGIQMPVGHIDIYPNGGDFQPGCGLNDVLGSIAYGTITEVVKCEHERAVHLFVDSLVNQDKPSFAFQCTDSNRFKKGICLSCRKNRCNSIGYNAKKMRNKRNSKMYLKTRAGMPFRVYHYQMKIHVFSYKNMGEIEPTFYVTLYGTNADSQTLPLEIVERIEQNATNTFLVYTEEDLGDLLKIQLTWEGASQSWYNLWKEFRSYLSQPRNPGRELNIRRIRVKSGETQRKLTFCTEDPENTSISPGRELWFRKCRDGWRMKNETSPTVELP

The target in the test is endothelial lipase (EL) (Homo sapiens (Human), UniProt Q9Y5X9). Briefly: Test for inhibition of EL (assay for EL activity). The class given is biochemical. Particulars: phospholipase-specific Bodipy phosphocholine substrate; 37° C. for 90 minutes; enzyme from conditioned medium of recombinant cell lines (CHO, HEK293). The source says:
Test for inhibition of EL:
EL is released as a secretory protein by recombinant cell lines (CHO, HEK293) in high concentration into cell culture medium (conditioned medium). This was used as an enzyme solution after concentration.
For characterization of the enzymatic activity of endothelial lipase and the effect of inhibitors, the phospholipase-specific substrate 1,2-bis(4,4-difluoro-5,7-dimethyl-4-bora-3a,4a-diaza-s-indacene-3-undecanoyl)-sn-glycero-3-phosphocholine (manufacturer: Molecular Probes) was used. Hydrolysis of the A1 ester bond of this phospholipid by the enzyme releases the fluorescent dye Bodipy, which can be detected by measuring the fluorescence after separation by thin-layer chromatography on an HPTLC plate (silica gel 60, Merck) or directly in the reaction vessel. To prepare the substrate solution, 100 μg of 1,2-bis(4,4-difluoro-5,7-dimethyl-4-bora-3a,4a-diaza-s-indacene-3-undecanoyl)-sn-glycero-3-phosphocholine (manufacturer: Molecular Probes) were dissolved in 100 μl of DMSO and taken up in 2.4 mg of tripalmitin (Sigma) in 393 μl of chloroform which contained 20 mg/ml DOP—choline (1,2-dioleoyl-sn-glycero-3-phosphocholine). 39.3 μl of this lipid mixture were transferred into a fresh reaction vessel and the solvent was evaporated off. The lipid mixture was dissolved by sonicating twice in 4 ml of 200 mM TRIS-HCl, 150 mM sodium chloride, pH=7.4. The subsequent enzyme reaction was effected at 37° C. for 90 minutes. For this purpose, 20 μl of the substrate solution were incubated with 2 μl of inhibitor of appropriate concentration (dissolved in 10% DMSO; 10% DMSO solution was used as a control) and 2 μl of enzyme solution (conditioned medium). Thereafter, 4 μl of the test mixture were applied to an HPTLC plate (silica gel 60, Merck) and the fluorescent dye released was separated for detection with an eluent (diethyl ether:petroleum:acetic acid [78:22:1]). After the eluent had been evaporated off, the plate was read in a fluorescence scanner.
Take `COc1cc(CNC(=O)n2sc3ncccc3c2=O)cc(OC)c1OC` [Example 3, 3-Oxo-3H-isothiazolo[5,4-b]pyridine-2-carboxylic acid 3,4,5-trimethoxy-benzylamide]: the half-maximal inhibitory concentration (IC50) was 926 nM. Regarding `COc1cc(C(C)NC(=O)n2sc3ncccc3c2=O)cc(OC)c1OC` (stereo not drawn) [Example 4, 3-Oxo-3H-isothiazolo[5,4-b]pyridine-2-carboxylic acid [1-(3,4,5-trimeth-oxy-phenyl)-ethyl]-amide], the IC50 was determined as 40 nM. Take `CC(NC(=O)n1sc2ncccc2c1=O)c1ccc2c(c1)OCCO2` (stereo not drawn) [Example 5, 3-Oxo-3H-isothiazolo[5,4-b]pyridine-2-carboxylic acid [1-(2,3-dihydro-benzo[1,4]dioxin-6-yl)-ethyl]-amide]: the IC50 was 200 nM. In the case of `O=C(NCc1ccccc1)n1sc2ncccc2c1=O` [Example 18, 3-Oxo-3H-isothiazolo[5,4-b]pyridine-2-carboxylic acid benzylamide], the IC50 was 69 nM. As for `COc1ccc(OC)c(CNC(=O)n2sc3ncccc3c2=O)c1` [Example 28, 3-Oxo-3H-isothiazolo[5,4-b]pyridine-2-carboxylic acid 2,5-dimethoxy-benzylamide], the IC50 was found to be 107 nM.

Consider `Cc1cc(C)c(CNC(=O)n2sc3ncccc3c2=O)c(C)c1` [Example 29, 3-Oxo-3H-isothiazolo[5,4-b]pyridine-2-carboxylic acid 2,4,6-trimethyl-benzylamide], for which the IC50 stood at 4290 nM. Take `COc1ccc(C(C)NC(=O)n2sc3ncccc3c2=O)cc1OC` (stereo not drawn) [Example 37, 3-Oxo-3H-isothiazolo[5,4-b]pyridine-2-carboxylic acid [1-(3,4-dimethoxy-phenyl)-ethyl]-amide]: the IC50 stood at 148 nM. As to `COc1cccc(CNC(=O)n2sc3ncccc3c2=O)c1` [Example 38, 3-Oxo-3H-isothiazolo[5,4-b]pyridine-2-carboxylic acid 3-methoxy-benzyl-amide], the IC50 was 182 nM. Regarding `Cc1cccc(C)c1CNC(=O)n1sc2ncccc2c1=O` [Example 39, 3-Oxo-3H-isothiazolo[5,4-b]pyridine-2-carboxylic acid 2,6-dimethyl-benz-ylamide], the 50% inhibitory concentration (IC50) stood at 120 nM. In the case of `CC(C)C(NC(=O)n1sc2ncccc2c1=O)c1ccc2c(c1)OCCCO2` (stereo not drawn) [Example 46, 3-Oxo-3H-isothiazolo[5,4-b]pyridine-2-carboxylic acid [1-(3,4-dihydro-2H-benzo[b][1,4]dioxepin-7-yl)-2-methyl-propyl]-amide], the half-inhibitory concentration (IC50) came to 28 nM. Regarding `CSc1ccc(CNC(=O)n2sc3ncccc3c2=O)cc1` [Example 55, 3-Oxo-3H-isothiazolo[5,4-b]pyridine-2-carboxylic acid 4-methylsulfanyl-benzylamide], the IC50 was determined as 116 nM. As to `CSc1cccc(CNC(=O)n2sc3ncccc3c2=O)c1` [Example 59, 3-Oxo-3H-isothiazolo[5,4-b]pyridine-2-carboxylic acid 3-methylsulfanyl-benzylamide], the IC50 turned out to be 264 nM. Then `COCCOc1ccc(CNC(=O)n2sc3ncccc3c2=O)cn1` [Example 114, 3-Oxo-3H-isothiazolo[5,4-b]pyridine-2-carboxylic acid [6-(2-methoxy-ethoxy)-pyridin-3-ylmethyl]-amide], with 216 nM; and `COc1cc(CNC(=O)n2sc3ncccc3c2=O)ccc1OCCN(C)C` [Example 115, 3-Oxo-3H-isothiazolo[5,4-b]pyridine-2-carboxylic acid 4-(2-dimethylamino-ethoxy)-3-methoxy-benzylamide], with 1380 nM; and `CC(C)Oc1ncccc1CNC(=O)n1sc2ncccc2c1=O` [Example 116, 3-Oxo-3H-isothiazolo[5,4-b]pyridine-2-carboxylic acid (2-isopropoxy-pyridin-3-ylmethyl)-amide], with 1590 nM. Turning to `CCOc1ccc(CNC(=O)n2sc3ncccc3c2=O)cc1OC` [Example 129, 3-Oxo-3H-isothiazolo[5,4-b]pyridine-2-carboxylic acid 4-ethoxy-3-meth-oxy-benzylamide], the IC50 is 230 nM. Turning to `CN(C)Cc1ccc(CNC(=O)n2sc3ncccc3c2=O)cc1` [Example 130, 3-Oxo-3H-isothiazolo[5,4-b]pyridine-2-carboxylic acid 4-dimethylamino-methyl-benzylamide], the IC50 stood at 85 nM. With `CC(NC(=O)n1sc2ncccc2c1=O)c1ccc(N2CCOCC2)cc1` (stereo not drawn) [Example 134, 3-Oxo-3H-isothiazolo[5,4-b]pyridine-2-carboxylic acid [1-(4-morpholin-4-yl-phenyl)-ethyl]-amide], the IC50 came out at 391 nM. Under `COCCN1CCC(CNC(=O)n2sc3ncccc3c2=O)CC1` [Example 142, 3-Oxo-3H-isothiazolo[5,4-b]pyridine-2-carboxylic acid [1-(2-methoxy-ethyl)-piperidin-4-ylmethyl]-amide] stands 517 nM; under `Cc1ccccc1CNC(=O)n1sc2ncccc2c1=O` [Example 156, 3-Oxo-3H-isothiazolo(5,4-b]pyridine-2-carboxylic acid 2-methyl-benzyl-amide], 1580 nM; under `COCCOc1ccc([C@@H](C)NC(=O)n2sc3ncccc3c2=O)cc1OC` [Example 161, 3-Oxo-3H-isothiazolo[5,4-b]pyridine-2-carboxylic acid {(R)-1-[3-methoxy-4-(2-methoxy-ethoxy)-phenyl]-ethyl}-amide], 80 nM.
